Our source for the IC50 values is patent US20230233569A1 (Revolution Medicines, Inc., priority 2020, published 2023).

Each structure is given as a SMILES string. Where “and” joins values, the source holds several entries; their conditions need not be identical. Identical values can stand only once. Like-named read-outs stand apart in the source and are kept apart here.

Test in all cases: Disruption of BRAF RBD interaction with Ras (FRET / MOA assay, with Cyclophilin A)
What all share (format): biochemical

Assay [1] addresses KRAS G12C (Homo sapiens, UniProt P01116+P62937, G12C). As to conditions: KRAS G12C; read-out: KRAS G12C FRET data IC50. From the text:
(§1) This protocol may also be executed substituting other Ras proteins or nucleotides.
(§2) The purpose of this biochemical assay was to measure the ability of test compounds to facilitate ternary complex formation between a nucleotide-loaded K-Ras isoform and Cyclophilin A; the resulting ternary complex disrupts binding to a BRAF^RBD construct, inhibiting K-Ras signaling through a RAF effector. Data is reported as IC50 values.
(§3) Compound was present in plate wells as a 10-point 3-fold dilution series starting at a final concentration of 30 μM. After incubation at 25° C. for 3 hours, a mixture of Anti-His Eu-W1024 and anti-GST allophycocyanin was then added to assay sample wells at final concentrations of 10 nM and 50 nM, respectively, and the reaction incubated for an additional 1.5 hours. […] Compounds that facilitate disruption of a K-Ras:RAF complex were identified as those eliciting a decrease in the TR-FRET ratio relative to DMSO control wells.
(§4) The purpose of this biochemical assay was to measure the ability of test compounds to facilitate ternary complex formation between a nucleotide-loaded K-Ras isoform and Cyclophilin A; the resulting ternary complex disrupts binding to a BRAF^RBDD construct, inhibiting K-Ras signaling through a RAF effector. Data is reported as IC50 values.

For assay [2], the target named is KRAS G12D (Homo sapiens, UniProt P01116+P62937, G12D). As to conditions: read-out: KRAS G12D FRET data, IC50.
Chain of KRAS G12D (P01116 1-169 isoform P01116-2 G12D limits assumed): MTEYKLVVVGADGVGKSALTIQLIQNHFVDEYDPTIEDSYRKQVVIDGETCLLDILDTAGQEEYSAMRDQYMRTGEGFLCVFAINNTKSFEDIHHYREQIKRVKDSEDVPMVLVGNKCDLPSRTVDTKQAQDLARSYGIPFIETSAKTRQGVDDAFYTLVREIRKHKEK
Chain of KRAS G12D (P62937 whole entry): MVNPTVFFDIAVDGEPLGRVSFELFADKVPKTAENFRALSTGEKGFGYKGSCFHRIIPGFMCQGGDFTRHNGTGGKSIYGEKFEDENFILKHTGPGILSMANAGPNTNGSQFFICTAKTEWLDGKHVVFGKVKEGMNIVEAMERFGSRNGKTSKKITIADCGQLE
Source text: as §1, §2, §3, §4

Assay [3] deals with KRAS G12S (Homo sapiens, UniProt P01116+P62937, G12S). As to conditions: read-out: KRAS G12S FRET data, IC50.
Chain of KRAS G12S (P01116 1-169 isoform P01116-2 G12S limits assumed): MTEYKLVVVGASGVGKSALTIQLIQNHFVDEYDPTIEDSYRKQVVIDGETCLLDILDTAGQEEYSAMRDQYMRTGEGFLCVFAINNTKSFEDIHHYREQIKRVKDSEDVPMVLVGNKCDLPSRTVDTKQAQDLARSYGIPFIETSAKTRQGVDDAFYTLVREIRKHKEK
Chain of KRAS G12S (P62937 whole entry): as the sequence (P62937 whole entry) above
Source text: as §1, §2, §3, §4

Assay [4] addresses KRAS G12V (Homo sapiens, UniProt P01116+P62937, G12V). To be noted: KRAS G12V; read-out: KRAS G12V FRET data IC50.
Source text: as §1, §2, §3, §4

In assay [5] the target is KRAS G13C (Homo sapiens, UniProt P01116+P62937, G13C).
Chain of KRAS G13C (P01116 1-169 isoform P01116-2 G13C): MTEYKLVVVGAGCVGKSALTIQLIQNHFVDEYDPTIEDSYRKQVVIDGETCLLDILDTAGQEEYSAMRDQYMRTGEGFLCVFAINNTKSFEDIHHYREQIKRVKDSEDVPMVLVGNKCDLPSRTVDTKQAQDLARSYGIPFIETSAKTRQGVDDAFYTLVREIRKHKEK
Chain of KRAS G13C (P62937 whole entry): as the sequence (P62937 whole entry) above
Source text: as §1, §2, §3, §4

The target of assay [6] is KRAS WT (Homo sapiens, UniProt P01116+P62937). To be noted: KRAS WT; read-out: KRAS WT FRET data IC50.
Chain of KRAS WT (P01116 1-169 isoform P01116-2 limits assumed): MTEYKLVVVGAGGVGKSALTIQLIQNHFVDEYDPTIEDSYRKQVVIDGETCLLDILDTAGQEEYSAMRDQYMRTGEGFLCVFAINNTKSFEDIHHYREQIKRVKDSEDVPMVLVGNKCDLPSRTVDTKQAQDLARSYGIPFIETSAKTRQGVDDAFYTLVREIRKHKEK
Chain of KRAS WT (P62937 whole entry): as the sequence (P62937 whole entry) above
Source text: as §1, §2, §3, §4

Where [7] appears, read: KRAS G13C, read-out: KRAS G13C FRET data IC50.

Chain of KRAS G12V (P01116 1-169 isoform P01116-2 G12V limits assumed): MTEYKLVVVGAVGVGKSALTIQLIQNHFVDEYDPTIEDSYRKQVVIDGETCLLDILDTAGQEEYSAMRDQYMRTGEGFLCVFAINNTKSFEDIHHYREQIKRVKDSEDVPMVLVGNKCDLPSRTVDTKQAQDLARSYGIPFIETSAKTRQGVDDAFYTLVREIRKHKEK
Chain of KRAS G12V (P62937 whole entry): as the sequence (P62937 whole entry) above
Chain of KRAS G12C (P01116 1-169 isoform P01116-2 G12C): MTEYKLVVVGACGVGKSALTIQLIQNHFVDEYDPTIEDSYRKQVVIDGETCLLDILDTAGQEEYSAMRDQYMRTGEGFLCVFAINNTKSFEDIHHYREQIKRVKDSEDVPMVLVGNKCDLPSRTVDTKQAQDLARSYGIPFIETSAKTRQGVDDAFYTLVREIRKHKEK
Chain of KRAS G12C (P62937 whole entry): as the sequence (P62937 whole entry) above

In the case of `CCn1c(-c2ccccc2CCOC)c2c3cc(ccc31)-c1cc(O)cc(c1)C[C@H](NC(=O)[C@H](C(C)C)N(C)C(=O)C1CCN(C(=O)/C=C/CN(C)C)CC1)C(=O)N1CCC[C@H](N1)C(=O)OCC(C)(C)C2` [Example A019], the IC50 in assay [1] was 0.1 to 1 µM; in assay [2], greater than 10 µM; in assay [3] it was 1 to 10 µM; in assay [4], greater than 10 µM; in assay [5] (setting [7]), 1 to 10 µM; in assay [6], 1 to 10 µM.
Turning to `C=CC(=O)N1CC[C@H](C(=O)N(C)[C@H](C(=O)N[C@H]2Cc3cc(O)cc(c3)-c3ccc4c(c3)c(c(-c3ccc(CC(=O)O)cc3)n4CC)CC(C)(C)COC(=O)[C@@H]3CCCN(N3)C2=O)C(C)C)C1` [Example A021], the IC50 in assay [1] was 1 to 10 µM; in assay [2] it was greater than 10 µM; in assay [3], greater than 10 µM; in assay [4], greater than 10 µM; in assay [5] (setting [7]), greater than 10 µM; in assay [6], greater than 10 µM.
Consider `C=CC(=O)N1CC[C@H](C(=O)N(C)[C@H](C(=O)N[C@H]2Cc3cc(O)cc(c3)-c3ccc4c(c3)c(c(-c3ccccc3[C@@H](C)OC)n4CC)CC(C)(C)COC(=O)[C@@H]3CCCN(N3)C2=O)C(C)C)C1` [Example A029], for which the IC50 in assay [1] lay within 0.01 to 0.1 µM; in assay [2], 1 to 10 µM; in assay [3], 0.1 to 1 µM; in assay [4], 0.1 to 1 µM; in assay [5] (setting [7]) it was 0.1 to 1 µM; in assay [6] it was 0.1 to 1 µM.
Take `C=CC(=O)N1CC[C@H](C(=O)N(C)[C@H](C(=O)N[C@H]2Cc3cc(O)cc(c3)-c3ccc4c(c3)c(c(-c3cccc(CN(C)C)c3)n4CC)CC(C)(C)COC(=O)[C@@H]3CCCN(N3)C2=O)C(C)C)C1` [Example A030]: the IC50 in assay [1] was 0.1 to 1 µM; in assay [2], greater than 10 µM; in assay [3], 1 to 10 µM; in assay [4] it was 1 to 10 µM; in assay [5] (setting [7]), 1 to 10 µM; in assay [6] it was 1 to 10 µM.
Turning to `C=CC(=O)N1CC2(CCN([C@H](C(=O)N[C@H]3Cc4cc(O)cc(c4)-c4ccc5c(c4)c(c(-c4ccccc4CCOC)n5CC)CC(C)(C)COC(=O)[C@@H]4CCCN(N4)C3=O)C(C)C)C2=O)C1` [Example A031], the concentration for half-maximal inhibition (IC50) in assay [1] was 0.01 to 0.1 µM; in assay [2], greater than 10 µM; in assay [3], 1 to 10 µM; in assay [4] it was 1 to 10 µM; in assay [5] (setting [7]), 0.01 to 0.1 µM; in assay [6], 1 to 10 µM.
Consider `C=CC(=O)N1CC[C@H](C(=O)N(C)[C@H](C(=O)N[C@H]2Cc3cc(OC(=O)CCC(=O)O)cc(c3)-c3ccc4c(c3)c(c(-c3ccccc3CCOC)n4CC)CC(C)(C)COC(=O)[C@@H]3CCCN(N3)C2=O)C(C)C)C1` [Example A032], for which the IC50 in assay [1] is 0.01 to 0.1 µM and 1 to 10 µM; in assay [2], greater than 10 µM; in assay [3], 0.1 to 1 µM and > 10 µM; in assay [4] it was 1 to 10 µM and > 10 µM; in assay [5] (setting [7]), 1 to 10 µM and > 10 µM; in assay [6], 1 to 10 µM and > 10 µM.
As for `C=CC(=O)N1CCC(C(=O)N(C)[C@H](C(=O)N[C@H]2Cc3cc(O)cc(c3)-c3ccc4c(c3)c(c(-c3ccccc3CN(C)C)n4CC)CC(C)(C)COC(=O)[C@@H]3CCCN(N3)C2=O)C(C)C)CC1` [Example A033], the IC50 was 0.1 to 1 µM in assay [1]; greater than 10 µM in assay [2]; 1 to 10 µM in assay [3]; greater than 10 µM in assay [4]; 0.1 to 1 µM in assay [5] (setting [7]); 1 to 10 µM in assay [6].
Regarding `C=CC(=O)N1CC[C@H](C(=O)N(C)[C@H](C(=O)N[C@H]2Cc3cc(O)cc(c3)-c3ccc4c(c3)c(c(-c3ccc(N5CCN(C)CC5)nc3)n4CC)CC(C)(C)COC(=O)[C@@H]3CCCN(N3)C2=O)C(C)C)C1` [Example A089], in assay [2], the IC50 was greater than 10 µM.
With `C=CC(=O)N1CC[C@H](C(=O)N(C)[C@H](C(=O)N[C@H]2Cc3cc(O)cc(c3)-c3ccc4c(c3)c(c(-c3cnccc3[C@H](C)OC)n4CC)CC(C)(C)COC(=O)[C@@H]3CCCN(N3)C2=O)C(C)C)C1` [Example A112], the IC50 in assay [1] was less than 0.01 µM.
In the case of `CCn1c(-c2cccnc2[C@H](C)OC)c2c3cc(ccc31)-c1csc(n1)C[C@H](NC(=O)[C@H](C(C)C)N(C)C(=O)O[C@H]1CCN(C)C1)C(=O)N1CCC[C@H](N1)C(=O)OCC(C)(C)C2` [Example A173], the IC50 in assay [5] (read-out: KRAS G13C FRET data, IC50) lay in the range of 1 to 10 µM.
